{"source": "patent US20180264282A1", "about": "“Specially Designed Kit To Aid Photo-Biologic Eradication Of Staphylococcus Aureus And MRSA In The Nares” (Nomir Medical Technologies, Inc., priority 2017, published 2018)", "key": {"[1]": {"system": "Staphylococcal furunculosis in the nose", "settings": "25% aqueous solution, topical; patients with chronic Staphylococcal furunculosis in the nose; cited from earlier work"}, "[2]": {"system": "S. aureus", "settings": "b.i.d. five day regimen; cited from earlier work"}, "[3]": {"system": "gram-positive enterococci", "settings": "cited from earlier work"}, "[4]": {"system": "S. aureus", "test": "summary of clinical nasal decolonization studies using mupirocin treatments", "format": "in vivo, human", "settings": "administered three times per day versus twice per day", "excerpt": "Overall, the results from clinical studies of nasal decolonization studies using various mupirocin treatments are summarized in the table below: […]"}, "[5]": {"system": "MRSA", "settings": "cited from earlier work"}, "[6]": {"system": "S. aureus", "settings": "cited from earlier work"}, "[7]": {"system": "S. aureus", "settings": "in paraffin intra-nasally b.i.d. for five days; 72 hours after therapy; cited from earlier work"}, "[8]": {"system": "gram-positive bacteria such as S. aureus", "settings": "cited from earlier work"}, "[9]": {"system": "pyogenic skin infections", "settings": "2% water miscible cream three times per day for five days; assessed day seven; cited from earlier work"}, "[10]": {"system": "gram-negative enterobacteriacea", "settings": "cited from earlier work"}, "[11]": {"system": "S. aureus", "settings": "cited from earlier work", "remark": "listed apart in the source"}, "[12]": {"system": "S. aureus", "settings": "cited from earlier work", "remark": "listed apart in the source"}, "[13]": {"system": "S. aureus", "settings": "cited from earlier work", "remark": "listed apart in the source"}, "[14]": {"system": "S. aureus", "settings": "nasal administration; cited from earlier work"}, "[15]": {"system": "nasal carriage of staphylococci", "settings": "in snuff compounds; returned to normal after snuff therapy was discontinued; cited from earlier work"}, "[16]": {"system": "sycosis barbae", "settings": "cream to skin lesions and nose; cited from earlier work"}, "[17]": {"system": "S. aureus", "settings": "after five days of local treatment to the nose, cited from earlier work"}, "[18]": {"system": "impetigo and furunculosis", "settings": "spray; cited from earlier work"}, "[19]": {"settings": "three weeks after the treatment phase"}}, "note": "“And” between values parts separate entries of the source, which are not always exact repeats. Equal entries are not always repeated. Where two headings read alike, the source gives them in different places."}
{"molecule": "[Cl][Al]([Cl])[Cl]", "note": "[aluminum chloride]", "values": [{"measurement": "treatment outcome", "setting": "[1]", "value": "successful treatment outcome for all"}]}
{"molecule": "C/C(=C\\C(=O)OCCCCCCCCC(=O)O)C[C@@H]1OC[C@H](C[C@@H]2O[C@H]2[C@@H](C)[C@H](C)O)[C@@H](O)[C@H]1O", "note": "[mupirocin]", "values": [{"measurement": "patients with nasal carriage eliminated", "setting": "[2]", "value": "approximately 80%"}, {"measurement": "antibacterial activity", "setting": "[3]", "value": "not substantial activity"}, {"measurement": "outcomes t.i.d. compared with b.i.d.", "setting": "[4]", "value": "statistically significantly better outcomes"}, {"measurement": "treated patients and staff with nasal carriage eliminated", "setting": "[5]; 2% in paraffin t.i.d. for five days, 40 patients and 32 staff", "value": "all"}, {"measurement": "number of patients with MRSA isolated from wrists", "setting": "[5]; immediately after therapy was completed, from 16 before", "value": "three"}, {"measurement": "time to elimination of nasal carriage", "setting": "[5]; usually", "value": "≤ 48", "unit": "h"}, {"measurement": "patients recolonized", "setting": "[5]; within two weeks after therapy", "value": "Four"}, {"measurement": "Elimination after trial", "setting": "[6]; 2X-3X per day, 3-8 days", "value": 97, "unit": "%"}, {"measurement": "Elimination after trial", "setting": "[6]; 3X per Day, 5 Days", "value": "100% and 97%"}, {"measurement": "Elimination after trial", "setting": "[6]; 4X per Day, 5 Days", "value": 100, "unit": "%"}, {"measurement": "Recolonization", "setting": "[6]; at 3 weeks, 4X per Day, 5 Days", "value": 16, "unit": "% at 3 weeks"}, {"measurement": "Recolonization", "setting": "[6]; at 4 weeks, 2X per day, 5 days", "value": "43% at 4 weeks and 22% at 4 weeks and 26% at 4 weeks"}, {"measurement": "proportion of hand cultures positive for S. aureus", "setting": "[7]", "value": 2.9, "unit": "%"}, {"measurement": "antibacterial activity", "setting": "[8]", "value": "antibacterial activity"}, {"measurement": "cross-resistance with other antibiotics", "setting": "[8]", "value": "no cross-resistance"}, {"measurement": "patients with infection completely cleared", "setting": "[9]", "value": "43 of the 46"}, {"measurement": "antibacterial activity", "setting": "[10]", "value": "not substantial activity"}, {"measurement": "effective concentrations", "setting": "[11]", "value": "0.05 to 0.5", "unit": "µg/mL"}, {"measurement": "mutant inhibitory concentration (MIC)", "setting": "[11]", "value": 0.05, "unit": "µg/mL"}, {"measurement": "type of effect at MIC", "setting": "[11]; within MIC range cells recover in fresh media, higher concentrations needed for bactericidal effect", "value": "bacteriostatic"}, {"measurement": "participants with S. aureus eradicated", "setting": "[12]; in paraffin t.i.d. for five days, tested four days after the last dose", "value": "67 of the 69"}, {"measurement": "patients recolonized with S. aureus in the nose", "setting": "[12]; two weeks post therapy", "value": "approximately 40%"}, {"measurement": "patients with S. aureus carriage eliminated from nares", "setting": "[13]; 2% in white soft paraffin four times per day, 18 treated", "value": "all"}, {"measurement": "change in MIC to mupirocin on recolonization", "setting": "[13]; [19]", "value": "without an increase"}, {"measurement": "patients who regained S. aureus in the nares", "setting": "[13]; [19]", "value": "three"}]}
{"molecule": "Cc1onc(-c2ccccc2)c1C(=O)N[C@@H]1C(=O)N2[C@@H]1SC(C)(C)[C@@H]2C(=O)O", "note": "[oxacillin]", "values": [{"measurement": "aerial colonies of S. aureus", "setting": "[14]", "value": "decreased the aerial colonies of S. aureus"}, {"measurement": "nasal colonization", "setting": "[14]", "value": "decreased nasal colonization"}]}
{"molecule": "Nc1ccc(S(=O)(=O)Nc2nccs2)cc1", "note": "[sulphathiazole]", "values": [{"measurement": "nasal colonies", "setting": "[15]", "value": "great reduction in nasal colonies"}]}
{"molecule": "penicillin", "values": [{"measurement": "healing of patients", "setting": "[16]", "value": "all but one patient healed to satisfaction"}, {"measurement": "nasal colonies", "setting": "[15]", "value": "great reduction in nasal colonies"}, {"measurement": "skin carriage", "setting": "[17]; from 57% before", "value": 38, "unit": "%"}, {"measurement": "nasal S. aureus carriage", "setting": "[17]; from 97% before", "value": 37, "unit": "%"}, {"measurement": "use in treatment of impetigo and furunculosis", "setting": "[18]", "value": "successful"}]}
